Common to all, as to assay type: cell-based, human
One test has as its system Rho/MKL1 pathway. Put plainly: SRE.L-firefly luciferase reporter (dual luciferase assay), Gα12QL-transfected PC-3 cells. The following applies: for inhibition at 10 µM: read-out: % inh SRE.L (10 μM); for inhibition at 100 µM: read-out: % inh SRE.L (100 μM). The procedure:
(§1) Dual Luciferase Assay: Seed PC-3 prostate cancer cells (40,000 cells/well) were grown in 96-well plates in 10% FBS containing DMEM medium. Cells were transiently transfected with the Gα12QL activator of the Rho/MKL1 pathway, along with the SRE.L-firefly luciferase reporter construct for 6 hours. Additionally, cells were co-transfected with the TK-Renilla luciferase reporter as an indicator of non-specific compound effects. Various concentrations of selected compounds were added to the 96-well plates. Plates were incubated for 19 hours at 37° C. and 5% CO2 in 0.5% FBS containing DMEM medium. Cells were lysed with 1X Passive Lysis Buffer (Promega). Plates were incubated for 30 minutes at room temperature. Luminescence counts were read with a Victor2 (Perkin-Elmer) plate reader.

The subject of test [1] is TK-Renilla luciferase reporter. Kind of test: TK-Renilla (pRL-TK) luciferase reporter, indicator of non-specific compound effects. The following applies: PC-3 cells; for inhibition at 10 µM / inhibition at 100 µM: Homo sapiens, PC-3, 19 h; for inhibition at 10 µM: read-out: % inh PRL-TK (10 μM); for inhibition at 100 µM: read-out: % inh PRL-TK (100 μM). How it is done: as §1
(In general: A reporter such as luciferase makes a cellular process visible.)

Test [2] relates to PC-3 prostate cancer cells. Put plainly: WST1 cell viability assay. Particulars: PC-3 cells, just before lysis; for inhibition at 10 µM / inhibition at 100 µM: Homo sapiens; for inhibition at 10 µM: PC-3, 10 μM, read-out: % inh WST-1 (10 μM); for inhibition at 100 µM: PC-3, 100 μM, read-out: % inh WST-1 (100 μM). The procedure:
WST1 Cell Viability Assay: One hour prior to cell lysis for the dual luciferase assay, 10 μl per well of WST1 reagent (Roche) was added to the 96-well plates. Plates were incubated for 1 hour at 37° C. and 5% CO2. Cell viability was measured by WST1 absorbance at 450 nm with a Victor2 (Perkin-Elmer) plate reader.
Background: Tetrazolium dyes change colour on reduction, which living cells bring about.

The mark [3] stands for this setting: Homo sapiens, 19 h, 10 μM, DMSO alone = 0%.
Setting [4] is: Homo sapiens, 19 h, 100 μM, DMSO alone = 0%.

As usually defined, the IC50 is the concentration needed to halve the response being measured. A lower IC50 goes with greater potency.

As to `O=C(CONC(=O)c1cc(C(F)(F)F)cc(C(F)(F)F)c1)Nc1cccc(Cl)c1` [Compound 10, N-(2-(3-chlorophenylamino)-2-oxoethoxy)-3,5-bis(trifluoromethyl)benzamide], in the test on Rho/MKL1 pathway (Homo sapiens, 19 h), 5.9 µM corresponded to half-maximal inhibition (IC50). Further, the inhibition at 10 µM with Rho/MKL1 pathway (setting [3]) was found to be 65%; in test [1], 51%; in test [2] it was 49%. The inhibition at 100 µM stood at 100% with Rho/MKL1 pathway (setting [4]), 89% in test [1] (100 μM) and 97% in test [2].

In the test with Rho/MKL1 pathway (Homo sapiens, 19 h), `O=C(Nc1ccc(Cl)cc1)c1cccc(NC(=O)c2cc(C(F)(F)F)cc(C(F)(F)F)c2)c1` [Compound 14, N-(3-(4-chlorophenylcarbamoyl)phenyl)-3,5-bis(trifluoromethyl)benzamide] showed an IC50 of 1.7 µM. The values for the inhibition at 10 µM (in the test on Rho/MKL1 pathway (setting [3]); in test [1]; in test [2]) were 79%, 0% and 38%, respectively.

Take `O=C(Nc1ccc(Cl)cc1)c1ccc(NC(=O)c2cc(C(F)(F)F)cc(C(F)(F)F)c2)cc1` [Compound 38]: the IC50 with Rho/MKL1 pathway (Homo sapiens, 19 h) is more than 100 µM. Besides, the inhibition at 10 µM (in the test with Rho/MKL1 pathway (setting [3]); in test [1]; in test [2]) was 0% in each case.

As for `O=C(NCCCOc1ccc(Cl)cc1)c1cc(C(F)(F)F)cc(C(F)(F)F)c1` [Compound 19, N-(3-(4-chlorophenoxy)propyl)-3,5-bis(trifluoromethyl)benzamide], in the test on Rho/MKL1 pathway (Homo sapiens, 19 h), the IC50 is 8.9 µM. In addition, the inhibition at 10 µM came out at 55% in the test on Rho/MKL1 pathway (setting [3]), 28% in test [1] and 0% in test [2]. Also, the inhibition at 100 µM in the test on Rho/MKL1 pathway (setting [4]) amounted to 86%; in test [1] (100 μM), 65%; in test [2], 38%.

With `O=C(CCNC(=O)c1cc(C(F)(F)F)cc(C(F)(F)F)c1)Nc1ccc(Cl)cc1` [Compound 30, N-(3-(4-chlorophenylamino)-3-oxopropyl)-3,5-bis(trifluoromethyl)benzamide], the “% inh SRE.L (10 μM)” value in the test with Rho/MKL1 pathway (10 μM, 19 hrs, DMSO alone = 0%) stood at 38%. In the test with Rho/MKL1 pathway (100 μM, 19 hrs, DMSO alone = 0%), the “% inh SRE.L (100 μM)” value worked out at 64%. The IC50 in the test with Rho/MKL1 pathway (19 hrs) worked out at 38 µM; in the test with Rho/MKL1 pathway (Homo sapiens, 19 h) it was 25 µM. For the same compound, the results for the inhibition at 10 µM (in the test on Rho/MKL1 pathway (setting [3]); in test [1]; in test [2]) were 44%, 0% and 0%, respectively. Besides, the inhibition at 100 µM came to 66% with Rho/MKL1 pathway (setting [4]), 15% in test [1] (100 μM) and 6% in test [2]. The “% inh PRL-TK (100 μM)” value in test [1] (100 μM, 19 hrs) is recorded as 22%. The “% inh WST-1 (100 μM)” value in test [2] (100 μM, 100 µM) came to 10%.

In the test on Rho/MKL1 pathway (Homo sapiens, 19 h), `O=C(CONC(=O)c1cc(C(F)(F)F)cc(C(F)(F)F)c1)Nc1ccc(Cl)cc1` [Compound 1, N-(2-(4-chlorophenylamino)-2-oxoethoxy)-3,5-bis(trifluoromethyl)benzamide] yielded an IC50 of 4.7 µM. In addition, the values for the inhibition at 10 µM (with Rho/MKL1 pathway (setting [3]); in test [1]; in test [2]) were 71%, 53% and 42%, respectively. The inhibition at 100 µM in the test with Rho/MKL1 pathway (setting [4]) was 100%; in test [1] (100 μM) it was 89%; in test [2] it was 91%.

Compound `FC(F)(F)c1cc(CNCCCNc2ccc(Cl)cc2)cc(C(F)(F)F)c1` [Compound 28, N^1-(3,5-bis(trifluoromethyl)benzyl)-N^3-(4-chlorophenyl)propane-1,3-diamine] came in with a half-inhibitory concentration (IC50) with Rho/MKL1 pathway (Homo sapiens, 19 h) of 9.1 µM. The inhibition at 10 µM worked out at 65% in the test with Rho/MKL1 pathway (setting [3]), 6% in test [1] and 0% in test [2]. Further, the inhibition at 100 µM is 100% with Rho/MKL1 pathway (setting [4]), 90% in test [1] (100 μM) and 89% in test [2].

`O=C(CCCNC(=O)c1cc(C(F)(F)F)cc(C(F)(F)F)c1)Nc1ccc(Cl)cc1` [Compound 2, N-(4-(4-chlorophenylamino)-4-oxobutyl)-3,5-bis(trifluoromethyl)benzamide]: in the test with Rho/MKL1 pathway (Homo sapiens, 19 h), 21 µM corresponded to half-maximal inhibition (IC50). Also, the inhibition at 10 µM is 37% in the test on Rho/MKL1 pathway (setting [3]), 5% in test [1] and 0% in test [2]. Moreover, the inhibition at 100 µM came out at 79% with Rho/MKL1 pathway (setting [4]), 42% in test [1] (100 μM) and 12% in test [2].

In the test on Rho/MKL1 pathway (Homo sapiens, 19 h), `O=C(Nc1ccc(Cl)cc1)C1CCN(C(=O)c2cc(C(F)(F)F)cc(C(F)(F)F)c2)CC1` [Compound 5, 1-(3,5-bis(trifluoromethyl)benzoyl)-N-(4-chlorophenyl)piperidine-4-carboxamide] registered an IC50 of 16 µM. Besides, the inhibition at 10 µM in the test with Rho/MKL1 pathway (setting [3]) was 17%; in test [1] it was 0%; in test [2], 0%. Moreover, the results for the inhibition at 100 µM (in the test with Rho/MKL1 pathway (setting [4]); in test [1] (100 μM); in test [2]) were 87%, 17% and 39%, respectively.

`O=C(CC1CCCCN1C(=O)c1cc(C(F)(F)F)cc(C(F)(F)F)c1)Nc1ccc(Cl)cc1` (stereo not drawn) [Compound 26, 2-(1-(3,5-bis(trifluoromethyl)benzoyl)piperidin-2-yl)-N-(4-chlorophenyl)acetamide] had an IC50 in the test on Rho/MKL1 pathway (Homo sapiens, 19 h) of 9.9 µM. Further, the inhibition at 10 µM in the test with Rho/MKL1 pathway (setting [3]) stood at 41%; in test [1], 0%; in test [2] it was 0%. For the same compound, the figures for the inhibition at 100 µM (in the test with Rho/MKL1 pathway (setting [4]); in test [1] (100 μM); in test [2]) were 85%, 76% and 27%, respectively.

`O=C(Nc1ccc(Cl)cc1)C1CCN(C(=O)c2cc(C(F)(F)F)cc(C(F)(F)F)c2)C1` (stereo not drawn) [Compound 27, 1-(3,5-bis(trifluoromethyl)benzoyl)-N-(4-chlorophenyl)pyrrolidine-3-carboxamide] registered an IC50 with Rho/MKL1 pathway (Homo sapiens, 19 h) of 15.6 µM. The inhibition at 10 µM in the test on Rho/MKL1 pathway (setting [3]) came out at 30%; in test [1], 14%; in test [2], 0%. The figures for the inhibition at 100 µM (with Rho/MKL1 pathway (setting [4]); in test [1] (100 μM); in test [2]) were 100%, 92% and 86%, respectively.

Turning to `O=C(CONC(=O)c1ccc(Cl)cc1)Nc1cc(C(F)(F)F)cc(C(F)(F)F)c1` [Compound 6, N-(2-(3,5-bis(trifluoromethyl)phenylamino)-2-oxoethoxy)-4-chlorobenzamide], in the test with Rho/MKL1 pathway (Homo sapiens, 19 h), half-maximal inhibition (IC50) was put at 8.6 µM. In addition, the inhibition at 10 µM in the test on Rho/MKL1 pathway (setting [3]) was found to be 58%; in test [1], 19%; in test [2], 11%. For the same compound, the inhibition at 100 µM in the test with Rho/MKL1 pathway (setting [4]) is 100%; in test [1] (100 μM), 87%; in test [2] it was 96%.

`O=C(c1cc(C(F)(F)F)cc(C(F)(F)F)c1)N1CCCC(CNc2ccc(Cl)cc2)C1` (stereo not drawn) [Compound 56]: the inhibition at 10 µM in the test with Rho/MKL1 pathway (setting [3]) is 11.5%; in test [2], 24.8%. The inhibition at 100 µM in the test with Rho/MKL1 pathway (setting [4]) turned out to be 8.3%; in test [2], 22.4%.

The compound `O=C(NCCCNc1ccc(Cl)cn1)c1cc(C(F)(F)F)cc(C(F)(F)F)c1` [Compound 44, N-(3-((5-chloropyridin-2-yl)amino)propyl)-3,5-bis(trifluoromethyl)benzamide] gave an IC50 with Rho/MKL1 pathway (Homo sapiens, 19 h) of 654 µM. Moreover, the inhibition at 10 µM amounted to 20.5% with Rho/MKL1 pathway (setting [3]) and 17.6% in test [2]. The values for the inhibition at 100 µM (in the test with Rho/MKL1 pathway (setting [4]); in test [2]) were 82.9% and 39.4%, respectively.

For `O=C1Nc2ccc(Cl)cc2C1=CNC(=O)c1cc(C(F)(F)F)cc(C(F)(F)F)c1` [Compound 54, N-((5-chloro-2-oxoindolin-3-ylidene)methyl)-3,5-bis(trifluoromethyl)benzamide], the inhibition at 10 µM worked out at 6.5% with Rho/MKL1 pathway (setting [3]) and 10.6% in test [2]. In addition, the inhibition at 100 µM came to 12.2% in the test with Rho/MKL1 pathway (setting [4]) and 17.7% in test [2].
